PMC4975031, “A multifunctional GH39 glycoside hydrolase from the anaerobic gut fungus Orpinomyces sp. strain C1A” (PeerJ, 2016)
One block for each compound: values may come before it.

Assays:
[1] = target: T1, Bgxg1 (Pecoramyces ruminantium, UniProt A0A0U3AYH9); assay: p-nitrophenol release, Lineweaver-Burk; type: biochemical; conditions: pH 6.0, sodium acetate buffer, 39 °C; printed BDL (below detection limit, 500 nM)
T1 construct: codon-optimised fragment, 939 bp [sic], nucleotide positions 67-1,035 of transcript m.21910 (signal peptide predicted in full-length product)
T1 sequence (A0A0U3AYH9 23-335 limits assumed): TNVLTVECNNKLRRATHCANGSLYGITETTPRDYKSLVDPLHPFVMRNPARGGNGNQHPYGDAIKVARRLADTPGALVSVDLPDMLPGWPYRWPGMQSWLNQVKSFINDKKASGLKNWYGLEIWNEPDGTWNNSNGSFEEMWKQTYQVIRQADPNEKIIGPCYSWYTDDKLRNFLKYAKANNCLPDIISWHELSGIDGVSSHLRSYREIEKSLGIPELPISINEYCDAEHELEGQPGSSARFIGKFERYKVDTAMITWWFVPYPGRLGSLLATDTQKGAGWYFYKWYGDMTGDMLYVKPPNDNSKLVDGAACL
Excerpt: (§1) p-nitrophenol release, Lineweaver-Burk on Bgxg1

[2] = target: T1, Bgxg1; assay: substrate competition: PNPG hydrolysis in presence of xylobiose; type: biochemical; conditions: read-out: Relative specific activity (%)
Excerpt: substrate competition: PNPG hydrolysis in presence of xylobiose on Bgxg1

[3] = test system: T2, O=[N+]([O-])c1ccc(O[C@@H]2OC[C@@H](O)[C@H](O)[C@H]2O)cc1; assay: p-nitrophenol release, Lineweaver-Burk; type: biochemical, Pecoramyces ruminantium; conditions: pH 6.0, sodium acetate buffer, 39 °C
T2 construct: codon-optimised fragment, 939 bp [sic], nucleotide positions 67-1,035 of transcript m.21910 (signal peptide predicted in full-length product)
Excerpt: as §1

Km [1]: < 0.5 µM
Compound: O=[N+]([O-])c1ccc(O[C@@H]2O[C@H](CO)[C@@H](O)[C@H](O)[C@H]2O)cc1 [PNPG, p-nitrophenyl-β-D-glucopyranoside]

Km [1]: < 0.5 µM
Compound: O=[N+]([O-])c1ccc(O[C@@H]2O[C@H](CO)[C@H](O)[C@H](O)[C@H]2O)cc1 [PNPGal, p-nitrophenyl-β-D-galactopyranoside]

activity at 20000 µM [2]: 57.2%
Compound: OC1OC[C@@H](O[C@@H]2OC[C@@H](O)[C@H](O)[C@H]2O)[C@H](O)[C@H]1O (some centres unmarked) [xylobiose]

Compound: Bgxg1 (Pecoramyces ruminantium)
Km [3]: 4.85 ± 0.62 µM
Vmax [3]: 127 µmol/min/mg
